According to the supplement of paper PMC10307832:

Key:
Test in all cases: relative viability (nuclei count vs DMSO), 5 days (fraction); higher = more cells survive
BEN = test system: BEN
Procedure, shortened: (§1)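 Relative viability divides the nuclei count in treated wells by that in vehicle wells. Lung cancer cell lines were seeded in 1536-well plates, dosed by pin tool the next day, and fixed and stained after 5 days in one step with final 0.05% Triton X-100, 1% formaldehyde and 1 ug/ml Hoechst. Dosing was a single drug or a fixed anchor-drug dose plus five library-drug doses (not always all listed) in √10 steps, and values are medians of duplicate plates imaged at 4×.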

ChaGo-K-1 = test system: ChaGo-K-1
Procedure, shortened: as §1

HCC-78 = test system: HCC-78
Procedure, shortened: as §1

LC-2-ad = test system: LC-2-ad
Procedure, shortened: as §1

LCLC-97TM1 = test system: LCLC-97TM1
Procedure, shortened: as §1

LK-2 = test system: LK-2
Procedure, shortened: as §1

LU99A = test system: LU99A
Procedure, shortened: as §1

LXF-289 = test system: LXF-289
Procedure, shortened: as §1

NCI-H1355 = test system: NCI-H1355
Procedure, shortened: as §1

NCI-H1651 = test system: NCI-H1651
Procedure, shortened: as §1

NCI-H1666 = test system: NCI-H1666
Procedure, shortened: as §1

NCI-H1944 = test system: NCI-H1944
Procedure, shortened: as §1

NCI-H1975 = test system: NCI-H1975
Procedure, shortened: as §1

NCI-H2087 = test system: NCI-H2087
Procedure, shortened: as §1

NCI-H358 = test system: NCI-H358
Procedure, shortened: as §1

NCI-H596 = test system: NCI-H596
Procedure, shortened: as §1

NCI-H650 = test system: NCI-H650
Procedure, shortened: as §1

NCI-H661 = test system: NCI-H661
Procedure, shortened: as §1

NCI-H838 = test system: NCI-H838
Procedure, shortened: as §1

PC-3 [JPC-3] = test system: PC-3 [JPC-3]
Procedure, shortened: as §1

SK-MES-1 = test system: SK-MES-1
Procedure, shortened: as §1

## COc1nc(C)cnc1NS(=O)(=O)c1cccnc1-c1ccc(-c2nnco2)cc1 [Zibotentan] + C[C@@H](Oc1cc(-c2cnn(C3CCNCC3)c2)cnc1N)c1c(Cl)ccc(F)c1Cl [Crizotinib] (partner 1 µM)
BEN; first compound 0.08 µM
  relative viability: 0.803
BEN; first compound 0.253 µM
  relative viability: 0.724
BEN; first compound 0.8 µM
  relative viability: 0.989
BEN; first compound 2.53 µM
  relative viability: 1.02
ChaGo-K-1; first compound 0.08 µM
  relative viability: 1.33
ChaGo-K-1; first compound 0.8 µM
  relative viability: 1.09
ChaGo-K-1; first compound 2.53 µM
  relative viability: 1.21
HCC-78; first compound 0.08 µM
  relative viability: 0.336
HCC-78; first compound 0.253 µM
  relative viability: 0.311
HCC-78; first compound 0.8 µM
  relative viability: 0.324
HCC-78; first compound 2.53 µM
  relative viability: 0.343
LC-2-ad; first compound 0.08 µM
  relative viability: 0.511
LC-2-ad; first compound 0.253 µM
  relative viability: 0.448
LC-2-ad; first compound 0.8 µM
  relative viability: 0.493
LC-2-ad; first compound 2.53 µM
  relative viability: 0.469
LCLC-97TM1; first compound 0.08 µM
  relative viability: 0.272
LCLC-97TM1; first compound 0.253 µM
  relative viability: 0.374
LCLC-97TM1; first compound 0.8 µM
  relative viability: 0.351
LCLC-97TM1; first compound 2.53 µM
  relative viability: 0.435
LK-2; first compound 0.08 µM
  relative viability: 0.259
LK-2; first compound 0.253 µM
  relative viability: 0.237
LK-2; first compound 0.8 µM
  relative viability: 0.253
LK-2; first compound 2.53 µM
  relative viability: 0.241
LU99A; first compound 0.08 µM
  relative viability: 0.537
LU99A; first compound 0.253 µM
  relative viability: 0.527
LU99A; first compound 0.8 µM
  relative viability: 0.645
LU99A; first compound 2.53 µM
  relative viability: 0.617
LXF-289; first compound 0.08 µM
  relative viability: 0.882
LXF-289; first compound 0.253 µM
  relative viability: 0.804
LXF-289; first compound 0.8 µM
  relative viability: 0.822
LXF-289; first compound 2.53 µM
  relative viability: 0.805
NCI-H1355; first compound 0.08 µM
  relative viability: 1.07
NCI-H1355; first compound 0.253 µM
  relative viability: 1.07
NCI-H1355; first compound 0.8 µM
  relative viability: 1.12
NCI-H1355; first compound 2.53 µM
  relative viability: 0.974
NCI-H1651; first compound 0.08 µM
  relative viability: 0.962
NCI-H1651; first compound 0.253 µM
  relative viability: 0.823
NCI-H1651; first compound 0.8 µM
  relative viability: 0.837
NCI-H1651; first compound 2.53 µM
  relative viability: 0.862
NCI-H1666; first compound 0.08 µM
  relative viability: 1.01
NCI-H1666; first compound 0.253 µM
  relative viability: 0.856
NCI-H1666; first compound 0.8 µM
  relative viability: 1.15
NCI-H1666; first compound 2.53 µM
  relative viability: 0.996
NCI-H1944; first compound 0.08 µM
  relative viability: 1.26
NCI-H1944; first compound 0.253 µM
  relative viability: 1.08
NCI-H1944; first compound 0.8 µM
  relative viability: 1.06
NCI-H1944; first compound 2.53 µM
  relative viability: 1.06
NCI-H1975; first compound 0.08 µM
  relative viability: 1.04
NCI-H1975; first compound 0.253 µM
  relative viability: 0.871
NCI-H1975; first compound 0.8 µM
  relative viability: 0.837
NCI-H1975; first compound 2.53 µM
  relative viability: 0.967
NCI-H2087; first compound 0.08 µM
  relative viability: 0.881
NCI-H2087; first compound 0.253 µM
  relative viability: 1.07
NCI-H2087; first compound 0.8 µM
  relative viability: 0.984
NCI-H2087; first compound 2.53 µM
  relative viability: 0.928
NCI-H358; first compound 0.08 µM
  relative viability: 0.581
NCI-H358; first compound 0.8 µM
  relative viability: 0.665
NCI-H358; first compound 2.53 µM
  relative viability: 0.617
NCI-H596; first compound 0.08 µM
  relative viability: 0.942
NCI-H596; first compound 0.253 µM
  relative viability: 0.898
NCI-H596; first compound 0.8 µM
  relative viability: 0.989
NCI-H596; first compound 2.53 µM
  relative viability: 0.957
NCI-H650; first compound 0.08 µM
  relative viability: 0.856
NCI-H650; first compound 0.253 µM
  relative viability: 0.661
NCI-H650; first compound 0.8 µM
  relative viability: 0.705
NCI-H650; first compound 2.53 µM
  relative viability: 0.792
NCI-H661; first compound 0.08 µM
  relative viability: 0.971
NCI-H661; first compound 0.8 µM
  relative viability: 1.04
NCI-H661; first compound 2.53 µM
  relative viability: 0.853
NCI-H838; first compound 0.08 µM
  relative viability: 0.918
NCI-H838; first compound 0.253 µM
  relative viability: 0.826
NCI-H838; first compound 0.8 µM
  relative viability: 0.82
NCI-H838; first compound 2.53 µM
  relative viability: 0.848
PC-3 [JPC-3]; first compound 0.08 µM
  relative viability: 0.951
PC-3 [JPC-3]; first compound 0.253 µM
  relative viability: 0.967
PC-3 [JPC-3]; first compound 0.8 µM
  relative viability: 0.955
PC-3 [JPC-3]; first compound 2.53 µM
  relative viability: 0.966
SK-MES-1; first compound 0.08 µM
  relative viability: 1.12
SK-MES-1; first compound 0.253 µM
  relative viability: 1.02
SK-MES-1; first compound 0.8 µM
  relative viability: 0.969
SK-MES-1; first compound 2.53 µM
  relative viability: 0.932
